Tests used:
[1] = target: T1, WNV NS2B-NS3 protease (NS2B-NS3pro) (West Nile virus strain NY-99, UniProt Q9Q6P4); test: fluorogenic protease assay, pERTKR-AMC, nonlinear fit in competitive mode; format: biochemical
T1 construct: gene GP1; cut from WNV genome polyprotein; with Serine protease subunit NS2B (cofactor region)

[2] = target: T1, WNV NS2B-NS3 protease (NS2B-NS3pro); test: fluorogenic protease assay, pERTKR-AMC, four-parameter fit, […] concentrations; format: biochemical

T1 sequence (Q9Q6P4 1423-1469): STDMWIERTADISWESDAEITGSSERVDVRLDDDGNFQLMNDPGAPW
T1 sequence (Q9Q6P4 1506-1689): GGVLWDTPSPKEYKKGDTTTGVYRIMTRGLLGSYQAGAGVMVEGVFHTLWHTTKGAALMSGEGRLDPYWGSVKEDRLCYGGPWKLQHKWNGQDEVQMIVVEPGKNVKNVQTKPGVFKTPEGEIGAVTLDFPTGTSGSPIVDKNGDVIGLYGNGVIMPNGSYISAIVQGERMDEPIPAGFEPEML

Q: C=CCc1ccc(OCc2cn(Cc3ccccc3Br)nn2)c(OC)c1 [compound 35, 4-((4-allyl-2-methoxyphenoxy)methyl)-1-(2-bromobenzyl)-1H-1,2,3-triazole] was tested. Which Ki [1] did it give?
A: 3.06 µM

Q: And the IC50 [2]?
A: 6.86 µM

Source: paper PMC6762200, “Discovery of novel West Nile Virus protease inhibitor based on isobenzonafuranone and triazolic derivatives of eugenol and indan-1,3-dione scaffolds” (PLoS ONE, 2019)
